Experimental data: patent US20020137929A1, “1 - (3-heterocyclylphenyl) isothiourea, -isourea, -guanidine and -amidine herbicidal agents” (Intellectual Property Department, BASF Aktiengesellschaft, priority 1998, published 2002)

How the values were obtained:
GALAP (Galium) [1] = assay: Postemergence herbicidal evaluation; type: in vivo, Galium aparine; conditions: postemergence
How it was run: (§1)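 Compound is applied as a foliar spray to seedlings about two weeks old, formulated in equal parts acetone and water with 0.5% TWEEN 20 and delivered at 40 psi to give about 0.0156–0.500 kg per hectare. Injury is rated visually 0–9 after four to five weeks.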

[2] = tested on: SAGPY (Arrowhead (Pygmaea)); assay: Preemergence weed control under flooded paddy conditions; type: in vivo, Sagittaria pygmaea; conditions: rated 3-4 weeks after treatment
How it was run: (§2)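 Seeds or propagules sown in silt loam kept flooded 1.5-3 cm; compounds in 50/50 acetone/water pipetted into flood water at about 0.0313 to 0.500 kg/ha. Greenhouse; visual 0-9 rating versus untreated control 3-4 weeks after treatment.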

CASOB (Sicklepod) [3] = assay: Preemergence herbicidal evaluation; type: in vivo, Cassia obtusifolia; conditions: rated 4-5 weeks after treatment
How it was run: (§3)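 Scores (0–9) reflect visual comparison with control plants for stand, vigor, malformation, size and chlorosis. Compound was applied to the soil after sowing, before emergence, as an aqueous acetone spray (about 0.0156–0.500 kg/ha), and cups were kept in a greenhouse for 4–5 weeks.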

ECHCG (Barnyardgrass) = assay: Postemergence herbicidal evaluation; type: in vivo, Echinochloa crus-galli; conditions: postemergence
How it was run: as §1

SETVI (Foxtail, Green) = assay: Postemergence herbicidal evaluation; type: in vivo, Setaria viridis; conditions: postemergence
How it was run: as §1

[4] = tested on: CHEAL (Lambsquarters, Common); assay: Postemergence herbicidal evaluation; type: in vivo, Chenopodium album; conditions: postemergence
How it was run: as §1

[5] = tested on: GLXMAW (Soybean, Williams); assay: Postemergence herbicidal evaluation; type: in vivo, Glycine max, (L.) Merr. cv Williams; conditions: postemergence
How it was run: as §1

ZEAMX (Corn, Field) = assay: Preemergence herbicidal evaluation; type: in vivo, Zea mays; conditions: rated 4-5 weeks after treatment
How it was run: as §3

ORYSAT (Rice, Tebonnet) = assay: Postemergence herbicidal evaluation; type: in vivo, Oryza sativa, (L.) Tebonnet; conditions: postemergence
How it was run: as §1

CYPIR (Rice Flatsedge) = assay: Preemergence weed control under flooded paddy conditions; type: in vivo, Cyperus iria; conditions: rated 3-4 weeks after treatment
How it was run: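 Seeds or propagules sown in top 0.5 cm of silt loam soil, flooded 1.5 to 3 cm above surface throughout. Compound in 50/50 v/v aqueous/acetone pipetted into flood water at about 0.0313 to 0.500 kg/ha. Visual 0-9 rating versus control after three to four weeks in greenhouse.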

CYPSE (Flatsedge) = assay: as above; type: in vivo, Cyperus serotinus; conditions: rated 3-4 weeks after treatment
How it was run: as §2

CASOB (Sicklepod) [6] = assay: Postemergence herbicidal evaluation; type: in vivo, Cassia obtusifolia; conditions: postemergence
How it was run: as §1

AMBEL (Ragweed, Common) = assay: Postemergence herbicidal evaluation; type: in vivo, Ambrosia artemisifolia; conditions: postemergence
How it was run: as §1

GALAP (Galium) [7] = assay: Preemergence herbicidal evaluation; type: in vivo, Galium aparine; conditions: rated 4-5 weeks after treatment
How it was run: as §3

## CN1C(=O)C(CC(=O)NO)SC1=Nc1cc(-n2c(=O)cc(C(F)(F)F)n(C)c2=O)c(F)cc1Cl (centres unmarked) [Compound 162, 2-{{2-Chloro-5-[3,6-dihydro-3-methyl-2,6-dioxo-4-(trifluoromethyl)-1(2H)-pyrimidinyl]-4-fluorophenyl}imino}-3-methyl-4-oxo-5-thiazolidineacetohydroxamic acid]
GALAP (Galium) [1]; rate 0.0156 kg/ha
  herbicidal rating GALAP: 0.0
GALAP (Galium) [1]; rate 0.0313 kg/ha
  herbicidal rating GALAP: 3.0
GALAP (Galium) [1]; rate 0.0625 kg/ha
  herbicidal rating GALAP: 6.0
[2]; 0.0313 kg/ha
  herbicidal effect rating, SAGPY: 0.0
[2]; 0.0625 kg/ha
  herbicidal effect rating, SAGPY: 3.0
[2]; 0.1250 kg/ha
  herbicidal effect rating, SAGPY: 3.0
[2]; 0.2500 kg/ha
  herbicidal effect rating, SAGPY: 3.0
CASOB (Sicklepod) [3]; 0.0156 kg/ha
  Preemergence herbicidal rating CASOB: 0.0
CASOB (Sicklepod) [3]; 0.0625 kg/ha
  Preemergence herbicidal rating CASOB: 0.0
CASOB (Sicklepod) [3]; 0.1250 kg/ha
  Preemergence herbicidal rating CASOB: 0.0
CASOB (Sicklepod) [3]; 0.2500 kg/ha
  Preemergence herbicidal rating CASOB: 4.0
ECHCG (Barnyardgrass); rate 0.0156 kg/ha
  herbicidal rating ECHCG: 0.0
ECHCG (Barnyardgrass); rate 0.0313 kg/ha
  herbicidal rating ECHCG: 0.0
ECHCG (Barnyardgrass); rate 0.0625 kg/ha
  herbicidal rating ECHCG: 0.0
SETVI (Foxtail, Green); rate 0.0156 kg/ha
  herbicidal rating SETVI: 0.0
SETVI (Foxtail, Green); rate 0.0313 kg/ha
  herbicidal rating SETVI: 3.0
SETVI (Foxtail, Green); rate 0.0625 kg/ha
  herbicidal rating SETVI: 4.0
[4]; rate 0.0156 kg/ha
  herbicidal rating CHEAL: 9.0
[4]; rate 0.0313 kg/ha
  herbicidal rating CHEAL: 9.0
[4]; rate 0.0625 kg/ha
  herbicidal rating CHEAL: 9.0
[5]; rate 0.0156 kg/ha
  herbicidal rating GLXMAW: 6.0
[5]; rate 0.0313 kg/ha
  herbicidal rating GLXMAW: 6.5
[5]; rate 0.0625 kg/ha
  herbicidal rating GLXMAW: 8.5
ZEAMX (Corn, Field); 0.0156 kg/ha
  Preemergence herbicidal rating ZEAMX: 6.0
ZEAMX (Corn, Field); 0.0313 kg/ha
  Preemergence herbicidal rating ZEAMX: 7.0
ZEAMX (Corn, Field); 0.0625 kg/ha
  Preemergence herbicidal rating ZEAMX: 9.0
ZEAMX (Corn, Field); 0.1250 kg/ha
  Preemergence herbicidal rating ZEAMX: 9.0
ZEAMX (Corn, Field); 0.2500 kg/ha
  Preemergence herbicidal rating ZEAMX: 9.0
ORYSAT (Rice, Tebonnet); rate 0.0156 kg/ha
  herbicidal rating ORYSAT: 0.5
ORYSAT (Rice, Tebonnet); rate 0.0313 kg/ha
  herbicidal rating ORYSAT: 1.5
ORYSAT (Rice, Tebonnet); rate 0.0625 kg/ha
  herbicidal rating ORYSAT: 1.5
CYPIR (Rice Flatsedge); 0.0313 kg/ha
  herbicidal effect rating, CYPIR: 5.0
CYPIR (Rice Flatsedge); 0.0625 kg/ha
  herbicidal effect rating, CYPIR: 6.0
CYPIR (Rice Flatsedge); 0.1250 kg/ha
  herbicidal effect rating, CYPIR: 6.0
CYPIR (Rice Flatsedge); 0.2500 kg/ha
  herbicidal effect rating, CYPIR: 9.0
CYPSE (Flatsedge); 0.1250 kg/ha
  herbicidal effect rating, CYPSE: 9.0
CYPSE (Flatsedge); 0.2500 kg/ha
  herbicidal effect rating, CYPSE: 9.0
CASOB (Sicklepod) [6]; rate 0.0156 kg/ha
  herbicidal rating CASOB: 0.0
CASOB (Sicklepod) [6]; rate 0.0313 kg/ha
  herbicidal rating CASOB: 0.0
CASOB (Sicklepod) [6]; rate 0.0625 kg/ha
  herbicidal rating CASOB: 2.0
AMBEL (Ragweed, Common); rate 0.0156 kg/ha
  herbicidal rating AMBEL: 9.0
AMBEL (Ragweed, Common); rate 0.0313 kg/ha
  herbicidal rating AMBEL: 9.0
AMBEL (Ragweed, Common); rate 0.0625 kg/ha
  herbicidal rating AMBEL: 9.0
GALAP (Galium) [7]; 0.0156 kg/ha
  Preemergence herbicidal rating GALAP: 0.0
GALAP (Galium) [7]; 0.0313 kg/ha
  Preemergence herbicidal rating GALAP: 0.0
GALAP (Galium) [7]; 0.0625 kg/ha
  Preemergence herbicidal rating GALAP: 0.0
GALAP (Galium) [7]; 0.1250 kg/ha
  Preemergence herbicidal rating GALAP: 3.0
GALAP (Galium) [7]; 0.2500 kg/ha
  Preemergence herbicidal rating GALAP: 3.0

## CCOC(=O)CN1C(=O)C(C(=O)OCC)SC1=Nc1cc(-n2c(=O)cc(C(F)(F)F)n(C)c2=O)c(F)cc1Cl (centres unmarked) [Compound 127, 5-Carboxy-2-{{2-chloro-5-[3,6-dihydro-3-methyl-2,6-dioxo-4-(trifluoromethyl)-1(2H)-pyrimidinyl]-4-fluorophenyl}imino}-4-oxo-3-thiazolidineacetic acid, diethyl ester]
GALAP (Galium) [1]; rate 0.0156 kg/ha
  herbicidal rating GALAP: 0.0
GALAP (Galium) [1]; rate 0.0313 kg/ha
  herbicidal rating GALAP: 0.0
GALAP (Galium) [1]; rate 0.0625 kg/ha
  herbicidal rating GALAP: 2.0
GALAP (Galium) [1]; rate 0.1250 kg/ha
  herbicidal rating GALAP: 3.0
[2]; 0.0313 kg/ha
  herbicidal effect rating, SAGPY: 0.0
[2]; 0.0625 kg/ha
  herbicidal effect rating, SAGPY: 0.0
[2]; 0.1250 kg/ha
  herbicidal effect rating, SAGPY: 0.0
[2]; 0.2500 kg/ha
  herbicidal effect rating, SAGPY: 3.0
CASOB (Sicklepod) [3]; rate 0.0313 kg/ha
  Preemergence herbicidal rating CASOB: 0.0
CASOB (Sicklepod) [3]; rate 0.0625 kg/ha
  Preemergence herbicidal rating CASOB: 0.0
CASOB (Sicklepod) [3]; rate 0.1250 kg/ha
  Preemergence herbicidal rating CASOB: 0.0
CASOB (Sicklepod) [3]; rate 0.2500 kg/ha
  Preemergence herbicidal rating CASOB: 2.0
CASOB (Sicklepod) [3]; rate 0.5000 kg/ha
  Preemergence herbicidal rating CASOB: 6.0
ECHCG (Barnyardgrass); rate 0.0156 kg/ha
  herbicidal rating ECHCG: 0.0
ECHCG (Barnyardgrass); rate 0.0313 kg/ha
  herbicidal rating ECHCG: 0.0
ECHCG (Barnyardgrass); rate 0.0625 kg/ha
  herbicidal rating ECHCG: 1.0
ECHCG (Barnyardgrass); rate 0.1250 kg/ha
  herbicidal rating ECHCG: 3.0
SETVI (Foxtail, Green); rate 0.0156 kg/ha
  herbicidal rating SETVI: 0.0
SETVI (Foxtail, Green); rate 0.0313 kg/ha
  herbicidal rating SETVI: 1.0
SETVI (Foxtail, Green); rate 0.0625 kg/ha
  herbicidal rating SETVI: 7.0
SETVI (Foxtail, Green); rate 0.1250 kg/ha
  herbicidal rating SETVI: 9.0
[4]; rate 0.0156 kg/ha
  herbicidal rating CHEAL: 4.0
[4]; rate 0.0313 kg/ha
  herbicidal rating CHEAL: 4.0
[4]; rate 0.0625 kg/ha
  herbicidal rating CHEAL: 9.0
[4]; rate 0.1250 kg/ha
  herbicidal rating CHEAL: 9.0
[5]; rate 0.0156 kg/ha
  herbicidal rating GLXMAW: 5.0
[5]; rate 0.0313 kg/ha
  herbicidal rating GLXMAW: 5.5
[5]; rate 0.0625 kg/ha
  herbicidal rating GLXMAW: 7.5
[5]; rate 0.1250 kg/ha
  herbicidal rating GLXMAW: 9.0
ZEAMX (Corn, Field); rate 0.0313 kg/ha
  Preemergence herbicidal rating ZEAMX: 0.0
ZEAMX (Corn, Field); rate 0.0625 kg/ha
  Preemergence herbicidal rating ZEAMX: 0.0
ZEAMX (Corn, Field); rate 0.1250 kg/ha
  Preemergence herbicidal rating ZEAMX: 0.0
ZEAMX (Corn, Field); rate 0.2500 kg/ha
  Preemergence herbicidal rating ZEAMX: 4.0
ZEAMX (Corn, Field); rate 0.5000 kg/ha
  Preemergence herbicidal rating ZEAMX: 8.0
ORYSAT (Rice, Tebonnet); rate 0.0156 kg/ha
  herbicidal rating ORYSAT: 0.5
ORYSAT (Rice, Tebonnet); rate 0.0313 kg/ha
  herbicidal rating ORYSAT: 0.5
ORYSAT (Rice, Tebonnet); rate 0.0625 kg/ha
  herbicidal rating ORYSAT: 0.5
ORYSAT (Rice, Tebonnet); rate 0.1250 kg/ha
  herbicidal rating ORYSAT: 2.5
CYPIR (Rice Flatsedge); 0.0313 kg/ha
  herbicidal effect rating, CYPIR: 2.0
CYPIR (Rice Flatsedge); 0.0625 kg/ha
  herbicidal effect rating, CYPIR: 2.0
CYPIR (Rice Flatsedge); 0.1250 kg/ha
  herbicidal effect rating, CYPIR: 4.0
CYPIR (Rice Flatsedge); 0.2500 kg/ha
  herbicidal effect rating, CYPIR: 4.0
CYPSE (Flatsedge); 0.0313 kg/ha
  herbicidal effect rating, CYPSE: 0.0
CYPSE (Flatsedge); 0.0625 kg/ha
  herbicidal effect rating, CYPSE: 0.0
CYPSE (Flatsedge); 0.1250 kg/ha
  herbicidal effect rating, CYPSE: 0.0
CYPSE (Flatsedge); 0.2500 kg/ha
  herbicidal effect rating, CYPSE: 0.0
CASOB (Sicklepod) [6]; rate 0.0156 kg/ha
  herbicidal rating CASOB: 0.0
CASOB (Sicklepod) [6]; rate 0.0313 kg/ha
  herbicidal rating CASOB: 0.0
CASOB (Sicklepod) [6]; rate 0.0625 kg/ha
  herbicidal rating CASOB: 1.0
CASOB (Sicklepod) [6]; rate 0.1250 kg/ha
  herbicidal rating CASOB: 1.0
AMBEL (Ragweed, Common); rate 0.0156 kg/ha
  herbicidal rating AMBEL: 9.0
AMBEL (Ragweed, Common); rate 0.0313 kg/ha
  herbicidal rating AMBEL: 9.0
AMBEL (Ragweed, Common); rate 0.0625 kg/ha
  herbicidal rating AMBEL: 9.0
AMBEL (Ragweed, Common); rate 0.1250 kg/ha
  herbicidal rating AMBEL: 9.0
GALAP (Galium) [7]; rate 0.0313 kg/ha
  Preemergence herbicidal rating GALAP: 0.0
GALAP (Galium) [7]; rate 0.0625 kg/ha
  Preemergence herbicidal rating GALAP: 3.0
GALAP (Galium) [7]; rate 0.1250 kg/ha
  Preemergence herbicidal rating GALAP: 3.0
GALAP (Galium) [7]; rate 0.2500 kg/ha
  Preemergence herbicidal rating GALAP: 7.0
GALAP (Galium) [7]; rate 0.5000 kg/ha
  Preemergence herbicidal rating GALAP: 9.0
